Data from patent US20250382287A1, “PHARMACEUTICALLY ACCEPTABLE SALT AND CRYSTAL FORM OF NITROGEN-CONTAINING BRIDGE HETEROCYCLIC DERIVATIVE, AND METHOD FOR PREPARING SAME” (JIANGSU HENGRUI PHARMACEUTICALS CO., LTD., priority 2022, published 2025).

How the values were obtained:
[1] = DVS (dynamic vapor sorption) hygroscopicity testing; type: physicochemical; settings: for hygroscopic weight gain under normal storage conditions / hygroscopic weight gain under accelerated experimental conditions / hygroscopic weight gain under extreme conditions: DVS; for hygroscopic weight gain under normal storage conditions: 25° C. and 60% RH; for hygroscopic weight gain under accelerated experimental conditions: 70% RH; for hygroscopic weight gain under extreme conditions: 90% RH; for crystal form re-identification after DVS testing: XRPD after DVS
Experimental: DVS refers to dynamic vapor sorption: Surface Measurement Systems instrinsic was adopted; the humidity started at 50%, the humidity range investigated was 0%-95%, and the humidity was increased in increments of 10%; the criterion was that each gradient mass change dM/dT is less than 0.002%, TMAX 360 min, two cycles.

[2] = Long-term/accelerated stability (sealed, 25° C./60% RH and 40° C./75% RH)
[3] = Influencing factor stability (open flasks, light, high temperature, high humidity, 30 days)
[4] = 25° C., 60% RH, sealed, 1 month
[5] = 25° C., 60% RH, sealed, 2 months
[6] = 25° C., 60% RH, sealed, 3 months
[7] = 25° C., 60% RH, sealed, 6 months
[8] = 25° C./60% RH and 40° C./75% RH, 6 months
[9] = 40° C., 75% RH, sealed, 1 month
[10] = 40° C., 75% RH, sealed, 2 months
[11] = 40° C., 75% RH, sealed, 3 months
[12] = 40° C., 75% RH, sealed, 6 months
[13] = Light exposure (4500 Lux), 5 days, open flask
[14] = Light exposure (4500 Lux), 10 days, open flask
[15] = Light exposure (4500 Lux), 30 days, open flask
[16] = light exposure (4500 Lux), 40° C. and 60° C., high humidity RH 75% and 92.5%, 30 days
[17] = Light exposure (4500 Lux), 12 days, open flask

CCO[C@H]1C[C@H]2CC[C@@](c3ccc(C(=O)O)cc3)(C1)N2Cc1c(OC)cc(C)c2[nH]ccc12.O=C(O)/C=C/C(=O)O [crystal form I of the fumarate, 4-((1S,3S,5R)-3-ethoxy-8-((5-methoxy-7-methyl-1H-indol-4-yl)methyl)-8-azabicyclo[3.2.1]octan-1-yl)benzoic acid-fumarate]
about 0.51%: hygroscopic weight gain under normal storage conditions [1]
No change: Salt form [2, 4] | Salt form [2, 5] | Salt form [2, 6] | Salt form [2, 7] | Salt form [2, 9] | Salt form [2, 10] | Salt form [2, 11] | Salt form [2, 12] | Salt form ([3]; 40° C., 5 days, open flask) | Salt form ([3]; 40° C., 10 days, open flask) | Salt form ([3]; 40° C., 30 days, open flask) | Salt form ([3]; 60° C., 5 days, open flask) | Salt form ([3]; 60° C., 10 days, open flask) | Salt form ([3]; 60° C., 30 days, open flask) | Salt form ([3]; 75% RH, 5 days, open flask) | Salt form ([3]; 75% RH, 10 days, open flask) | Salt form ([3]; 75% RH, 30 days, open flask) | Salt form ([3]; 92.5% RH, 5 days, open flask) | Salt form ([3]; 92.5% RH, 10 days, open flask) | Salt form ([3]; 92.5% RH, 30 days, open flask) | Salt form [3, 13] | Salt form [3, 14] | Salt form [3, 15]
99.3%: Purity % ([3]; 40° C., 30 days, open flask)
good: chemical stability [2, 8] | physical stability [2, 8] | chemical stability [3, 16] | physical stability [3, 16]
Crystal form I: Salt form ([2]; Initial) | Salt form ([3]; Initial, 0 days)
about 0.60%: hygroscopic weight gain under accelerated experimental conditions [1]
99.8%: Purity % [2, 12] | Purity % ([3]; 60° C., 5 days, open flask)
99.7%: Purity % ([3]; 40° C., 5 days, open flask) | Purity % ([3]; 60° C., 10 days, open flask)
100.0%: Purity % [2, 5] | Purity % [2, 6] | Purity % ([2]; Initial) | Purity % ([3]; 75% RH, 5 days, open flask) | Purity % ([3]; 75% RH, 30 days, open flask) | Purity % ([3]; Initial, 0 days) | Purity % [3, 13]
White solid: Color and state ([3]; 40° C., 5 days, open flask) | Color and state ([3]; 40° C., 10 days, open flask) | Color and state ([3]; 40° C., 30 days, open flask) | Color and state ([3]; 60° C., 5 days, open flask) | Color and state ([3]; 60° C., 10 days, open flask) | Color and state ([3]; 60° C., 30 days, open flask) | Color and state ([3]; 75% RH, 5 days, open flask) | Color and state ([3]; 75% RH, 10 days, open flask) | Color and state ([3]; 75% RH, 30 days, open flask) | Color and state ([3]; 92.5% RH, 5 days, open flask) | Color and state ([3]; 92.5% RH, 10 days, open flask) | Color and state ([3]; 92.5% RH, 30 days, open flask) | Color and state ([3]; Initial, 0 days) | Color and state [3, 13] | Color and state [3, 14] | Color and state [3, 15]
about 0.82%: hygroscopic weight gain under extreme conditions [1]
99.5%: Purity % ([3]; 60° C., 30 days, open flask) | Purity % [3, 15]
99.6%: Purity % ([3]; 40° C., 10 days, open flask)
99.9%: Purity % [2, 4] | Purity % [2, 7] | Purity % [2, 9] | Purity % [2, 10] | Purity % [2, 11] | Purity % ([3]; 75% RH, 10 days, open flask) | Purity % ([3]; 92.5% RH, 5 days, open flask) | Purity % ([3]; 92.5% RH, 10 days, open flask) | Purity % ([3]; 92.5% RH, 30 days, open flask) | Purity % [3, 14]
did not change: crystal form re-identification after DVS testing [1]

CCO[C@H]1C[C@H]2CC[C@@](c3ccc(C(=O)O)cc3)(C1)N2Cc1c(OC)cc(C)c2[nH]ccc12.O=P(O)(O)O [crystal form II of the phosphate, 4-((1S,3S,5R)-3-ethoxy-8-((5-methoxy-7-methyl-1H-indol-4-yl)methyl)-8-azabicyclo[3.2.1]octan-1-yl)benzoic acid-phosphate]
White solid: Color and state ([3]; 40° C., 5 days, open flask) | Color and state ([3]; 40° C., 12 days, open flask) | Color and state ([3]; 40° C., 30 days, open flask) | Color and state ([3]; 60° C., 5 days, open flask) | Color and state ([3]; 60° C., 12 days, open flask) | Color and state ([3]; 60° C., 30 days, open flask) | Color and state ([3]; 75% RH, 5 days, open flask) | Color and state ([3]; 75% RH, 12 days, open flask) | Color and state ([3]; 75% RH, 30 days, open flask) | Color and state ([3]; 92.5% RH, 5 days, open flask) | Color and state ([3]; 92.5% RH, 12 days, open flask) | Color and state ([3]; 92.5% RH, 30 days, open flask) | Color and state ([3]; Initial, 0 days) | Color and state [3, 13] | Color and state [3, 17] | Color and state [3, 15]
relatively good: physical stability ([2]; 25° C./60% RH and 40° C./75% RH, 2 months)
99.4%: Purity % [2, 5]
98.7%: Purity % [2, 9]
97.7%: Purity % [2, 10]
99.9%: Purity % ([2]; Initial)
good: long-term chemical stability ([2]; long-term condition, 2 months) | chemical stability under high humidity conditions ([3]; high humidity conditions only, 30 days) | physical stability under high temperature, light exposure, and high humidity (75% RH) conditions ([3]; high temperature, light exposure, high humidity 75% RH only)
Changed: Salt form ([3]; 92.5% RH, 12 days, open flask) | Salt form ([3]; 92.5% RH, 30 days, open flask)
No change: Salt form ([3]; 40° C., 5 days, open flask) | Salt form ([3]; 40° C., 12 days, open flask) | Salt form ([3]; 40° C., 30 days, open flask) | Salt form ([3]; 60° C., 5 days, open flask) | Salt form ([3]; 60° C., 12 days, open flask) | Salt form ([3]; 60° C., 30 days, open flask) | Salt form ([3]; 75% RH, 5 days, open flask) | Salt form ([3]; 75% RH, 12 days, open flask) | Salt form ([3]; 75% RH, 30 days, open flask) | Salt form ([3]; 92.5% RH, 5 days, open flask) | Salt form [3, 13] | Salt form [3, 17] | Salt form [3, 15]
99.6%: Purity % [2, 4]
Crystal form II: Salt form ([3]; Initial, 0 days)

CCO[C@H]1C[C@H]2CC[C@@](c3ccc(C(=O)O)cc3)(C1)N2Cc1c(OC)cc(C)c2[nH]ccc12.O=P(O)(O)O [crystal form III of the phosphate, 4-((1S,3S,5R)-3-ethoxy-8-((5-methoxy-7-methyl-1H-indol-4-yl)methyl)-8-azabicyclo[3.2.1]octan-1-yl)benzoic acid-phosphate]
did not change: crystal form re-identification after DVS testing [1]
about 4.7700%: hygroscopic weight gain under normal storage conditions [1]
about 5.440%: hygroscopic weight gain under accelerated experimental conditions [1]
about 7.20%: hygroscopic weight gain under extreme conditions [1]

CCO[C@H]1C[C@H]2CC[C@@](c3ccc(C(=O)O)cc3)(C1)N2Cc1c(OC)cc(C)c2[nH]ccc12.Cl [crystal form V of the hydrochloride, 4-((1S,3S,5R)-3-ethoxy-8-((5-methoxy-7-methyl-1H-indol-4-yl)methyl)-8-azabicyclo[3.2.1]octan-1-yl)benzoic acid-hydrochloride]
did not change: crystal form re-identification after DVS testing [1]
about 8.32%: hygroscopic weight gain under extreme conditions [1]
about 6.36%: hygroscopic weight gain under normal storage conditions [1]
about 7.28%: hygroscopic weight gain under accelerated experimental conditions [1]

CCO[C@H]1C[C@H]2CC[C@@](c3ccc(C(=O)O)cc3)(C1)N2Cc1c(OC)cc(C)c2[nH]ccc12.Cl [crystal form VI of the hydrochloride, 4-((1S,3S,5R)-3-ethoxy-8-((5-methoxy-7-methyl-1H-indol-4-yl)methyl)-8-azabicyclo[3.2.1]octan-1-yl)benzoic acid-hydrochloride]
about 4.12%: hygroscopic weight gain under accelerated experimental conditions [1]
did not change: crystal form re-identification after DVS testing [1]
about 3.69%: hygroscopic weight gain under normal storage conditions [1]
about 5.73%: hygroscopic weight gain under extreme conditions [1]
